Measurements from the supplement of paper PMC10627819.

Tested on: S. pneumoniae D39V
Experiment: fitness (endpoint OD595 vs no drug) (fraction); higher = more growth
Procedure, shortened: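 Growth medium was TSB, LB Lennox or CY, and plates were kept at 37 °C. Inoculation was at OD595 0.01 in 384-well plates, at 30 µl per well or 55 µl for S. pneumoniae. OD595 was monitored every 30 min for 14 h and background-subtracted using the first reading. Fitness is the optical density on entering stationary phase divided by the robust mean of no-drug controls, with values capped at 1.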
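Further: OD595 on entry to stationary phase over no-drug wells; at most 1.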

CC(=O)Oc1ccccc1C(=O)O [Acetylsalicylic acid] + C/C(=C\C(=O)OCCCCCCCCC(=O)O)C[C@@H]1OC[C@H](C[C@@H]2O[C@H]2[C@@H](C)[C@H](C)O)[C@@H](O)[C@H]1O [Pseudomonic acid]
fitness
Conditions | first compound 250 µg/mL | first compound 500 µg/mL | first compound 1000 µg/mL
partner 0.03 µg/mL | 0.933 | 0.9 | 0.825
partner 0.06 µg/mL | 0.822 | 0.723 | –
partner 0.12 µg/mL | 0.542 | 0.488 | 0.383

CC(=O)Oc1ccccc1C(=O)O [Acetylsalicylic acid] + CC1=C(C(=O)O)N2C(=O)[C@@H](NC(=O)[C@H](N)c3ccccc3)[C@H]2SC1 [Cephalexin]
fitness, one replicate
Conditions | first compound 250 µg/mL | first compound 500 µg/mL | first compound 1000 µg/mL
partner 0.125 µg/mL | 0.955 | 0.996 | 0.935
partner 0.25 µg/mL | 0.931 | 0.961 | 0.913
partner 0.5 µg/mL | 0.923 | 0.932 | 0.92

fitness
Conditions | first compound 250 µg/mL | first compound 500 µg/mL | first compound 1000 µg/mL
partner 1 µg/mL | 0.902 | 0.89 | 0.727
partner 2 µg/mL | 0.611 | – | 0.391
partner 4 µg/mL | 0.0549 | 0.0473 | 0.0319

CC(=O)Oc1ccccc1C(=O)O [Acetylsalicylic acid] + CC(C1CCC(C(O1)OC2C(CC(C(C2O)OC3C(C(C(CO3)(C)O)NC)O)N)N)N)NC [Gentamicin]
fitness, main component drawn
Conditions | partner 2 µg/mL | partner 4 µg/mL | partner 8 µg/mL
first compound 250 µg/mL | 0.955 | 0.967 | 0.93
first compound 500 µg/mL | 0.972 | 0.947 | 0.917

CC(=O)Oc1ccccc1C(=O)O [Acetylsalicylic acid] + CCC(C)C1C(=O)NC(=C)C(=O)NC(C(=O)NC(CSCC(C(=O)N1)NC(=O)/C(=C/C)/NC(=O)C(C(C)CC)N)C(=O)NC2C(SCC(NC(=O)CNC(=O)C3CCCN3C2=O)C(=O)NC(CCCCN)C(=O)NC4C(SCC(NC(=O)CNC(=O)C(NC(=O)C(NC(=O)C(NC(=O)CNC4=O)C)CC(C)C)CCSC)C(=O)NC(CC(=O)N)C(=O)NC(CCSC)C(=O)NC(CCCCN)C(=O)NC5C(SCC6C(=O)NC(C(=O)NC(CSC(C(C(=O)N6)NC(=O)C(NC5=O)C)C)C(=O)NC(CO)C(=O)NC(C(C)CC)C(=O)NC(CC7=CN=CN7)C(=O)NC(C(C)C)C(=O)NC(=C)C(=O)NC(CCCCN)C(=O)O)CC8=CN=CN8)C)C)C)CC(C)C [Nisin]
fitness, main component drawn
Conditions | partner 0.4275 µg/mL | partner 0.855 µg/mL | partner 1.6 µg/mL | partner 1.71 µg/mL | partner 3.2 µg/mL | partner 6.4 µg/mL
first compound 250 µg/mL | 0.994 | 0.711 | 0.0198 | 0.0841 | 0.0317 | 0.0271
first compound 500 µg/mL | 0.974 | 0.715 | 0.0324 | 0.114 | 0.0227 | 0.0184
first compound 1000 µg/mL | – | 0.526 | 0.0339 | 0.0989 | 0.0138 | 0.0153

CC(=O)Oc1ccccc1C(=O)O [Acetylsalicylic acid] + CC[C@H]1OC(=O)[C@H](C)[C@@H](O[C@H]2C[C@@](C)(OC)[C@@H](O)[C@H](C)O2)[C@H](C)[C@@H](O[C@@H]2O[C@H](C)C[C@H](N(C)C)[C@H]2O)[C@](C)(OC)C[C@@H](C)C(=O)[C@H](C)[C@@H](O)[C@]1(C)O [Clarithromycin]
fitness, one replicate
Conditions | first compound 250 µg/mL | first compound 500 µg/mL | first compound 1000 µg/mL
partner 0.007812 µg/mL | 0.824 | 0.781 | 0.281
partner 0.01562 µg/mL | 0.783 | 0.763 | 0.193
partner 0.03125 µg/mL | 0.621 | 0.627 | 0.257

fitness
Conditions | partner 0.0625 µg/mL | partner 0.07 µg/mL | partner 0.125 µg/mL | partner 0.14 µg/mL | partner 0.25 µg/mL | partner 0.28 µg/mL
first compound 250 µg/mL | 0.642 | 0.195 | 0.369 | 0.137 | 0.133 | 0.104
first compound 500 µg/mL | 0.586 | 0.228 | 0.359 | 0.167 | 0.147 | 0.108
first compound 1000 µg/mL | 0.405 | 0.155 | 0.148 | 0.139 | 0.0751 | 0.0935

CC(=O)Oc1ccccc1C(=O)O [Acetylsalicylic acid] + CN(C)C(=O)C(CCN1CCC(O)(c2ccc(Cl)cc2)CC1)(c1ccccc1)c1ccccc1 [Loperamide]
fitness
Conditions | partner 17.14 µg/mL | partner 20 µg/mL | partner 34.28 µg/mL | partner 40 µg/mL | partner 80 µg/mL
first compound 250 µg/mL | 0.987 | 0.989 | 0.945 | 0.982 | ≥ 1
first compound 500 µg/mL | 0.972 | ≥ 1 | 0.981 | ≥ 1 | ≥ 1
first compound 1000 µg/mL | 0.859 | 0.987 | 0.879 | 0.967 | 0.937

partner 68.57 µg/mL, one replicate
Conditions | fitness
first compound 250 µg/mL | 0.931
first compound 500 µg/mL | 0.927
first compound 1000 µg/mL | ≥ 1

CC(=O)Oc1ccccc1C(=O)O [Acetylsalicylic acid] + CN(C)c1cc(NC(=O)CNC(C)(C)C)c(O)c2c1C[C@H]1C[C@H]3[C@H](N(C)C)C(O)=C(C(N)=O)C(=O)[C@@]3(O)C(O)=C1C2=O [Tigecycline]
fitness
Conditions | partner 0.325 µg/mL | partner 0.65 µg/mL | partner 1.3 µg/mL | partner 2.6 µg/mL
first compound 250 µg/mL | 0.934 | 0.968 | 1 | 0.932
first compound 500 µg/mL | 0.904 | 0.985 | 0.949 | 0.95
first compound 1000 µg/mL | 0.797 | 0.763 | 0.803 | 0.718

CC(=O)Oc1ccccc1C(=O)O [Acetylsalicylic acid] + CN[C@@H]1[C@H](O[C@H]2[C@H](O[C@H]3[C@H](O)[C@@H](O)[C@H](N=C(N)N)[C@@H](O)[C@@H]3N=C(N)N)O[C@@H](C)[C@]2(O)C=O)O[C@@H](CO)[C@H](O)[C@H]1O [Streptomycin]
fitness
Conditions | first compound 250 µg/mL | first compound 500 µg/mL | first compound 1000 µg/mL
partner 2 µg/mL | 0.954 | 0.928 | 0.806
partner 4 µg/mL | 0.977 | 0.892 | –
partner 8 µg/mL | 0.929 | 0.869 | –

partner 16 µg/mL, one replicate
Conditions | fitness
first compound 250 µg/mL | 0.772
first compound 500 µg/mL | 0.605
first compound 1000 µg/mL | 0.159

CC(=O)Oc1ccccc1C(=O)O [Acetylsalicylic acid] + CO[C@H]1/C=C/O[C@@]2(C)Oc3c(C)c(O)c4c(O)c(c(/C=N/N5CCN(C)CC5)c(O)c4c3C2=O)NC(=O)/C(C)=C\C=C\[C@H](C)[C@H](O)[C@@H](C)[C@@H](O)[C@@H](C)[C@H](OC(C)=O)[C@@H]1C [Rifampicin]
fitness
Conditions | first compound 250 µg/mL | first compound 500 µg/mL | first compound 1000 µg/mL
partner 0.025 µg/mL | 0.932 | 0.913 | 0.81
partner 0.05 µg/mL | – | 0.899 | 0.668
partner 0.1 µg/mL | 0.476 | 0.37 | –

partner 0.2 µg/mL, one replicate
Conditions | fitness
first compound 250 µg/mL | 0
first compound 500 µg/mL | 0
first compound 1000 µg/mL | 0

CC(=O)Oc1ccccc1C(=O)O [Acetylsalicylic acid] + C[C@@H](O)[C@H]1C(=O)N2C(C(=O)O)=C(SCCNC=N)C[C@H]12 [Imipenem]
fitness
Conditions | partner 0.005 µg/mL | partner 0.0065 µg/mL | partner 0.01 µg/mL | partner 0.013 µg/mL | partner 0.02 µg/mL | partner 0.026 µg/mL
first compound 250 µg/mL | 0.948 | 0.983 | 0.898 | 0.953 | 0.912 | 0.914
first compound 500 µg/mL | 0.956 | 0.969 | 0.954 | 0.993 | 0.955 | 0.912
first compound 1000 µg/mL | 0.856 | 0.868 | 0.85 | 0.943 | 0.813 | 0.907
